In ChEMBL document CHEMBL4118093, “Identification of a Hit Series of Antileishmanial Compounds through the Use of Mixture-Based Libraries” (ACS Med Chem Lett, 2017):

How the values were obtained:
J774 = assay: Cytotoxicity against mouse J774 cells
Leishmania donovani [1] = assay: Antileishmanial activity against Leishmania donovani axenic amastigotes infected in mouse J774 cells measured after 72 hrs by Draq5 staining based high content screening assay; format: functional, organism-based; details: J774, 72 h
[2] = Selectivity index, ratio of IC50 for mouse J774 cells to IC50 for Leishmania donovani axenic amastigotes infected in mouse J774 cells; format: toxicity, cell-based; details: read-out: Ratio IC50
Leishmania donovani [3] = assay: Antileishmanial activity against Leishmania donovani axenic amastigotes at 2.5 uM after 72 hrs by Celltiter reagent based assay relative to control; format: functional
Leishmania donovani [4] = assay: Antileishmanial activity against Leishmania donovani axenic amastigotes at 5 uM after 72 hrs by Celltiter reagent based assay relative to control; format: functional

SMILES | IC50 (Leishmania donovani [1]) | IC50 (J774) | selectivity ratio [2] | inhibition at 2.5 µM (Leishmania donovani [3]) | inhibition at 5 µM (Leishmania donovani [4])
CCCC[C@H]1CN(CCCC[C@H]2CNC(=N)N2CCc2cccc(C(F)(F)F)c2)C(=N)N1CCCCC1CCCCC1 | 5 µM | 50 µM | 10 | 0% | 43%
CCCCCCCN1C(=N)N(CCCC[C@H]2CNC(=N)N2CCCCC2CCCCC2)C[C@@H]1CC1CCCCC1 | 0.7 µM | 25 µM | 36 | 97% | 95%
N=C1NC[C@H](CCCCN2C[C@H](CC3CCCCC3)N(CCCCC3CCCCC3)C2=N)N1CCCCC1CCCCC1 | > 5 µM | 24 µM | < 5 | 77% | 95%
CCCCCCCN1C(=N)N(CCCC[C@H]2CNC(=N)N2CCc2cccc(C(F)(F)F)c2)C[C@@H]1CCCC | 0.6 µM | 48 µM | 81 | 9% | 26%
N=C1NC[C@H](CCCCN2C[C@H](CC3CCCCC3)N(CCCCC3CCCCC3)C2=N)N1CCC12CC3CC(CC(C3)C1)C2 | > 5 µM | 23 µM | < 5 | 0% | 28%
CC1CCC(CN2C(=N)NC[C@@H]2CCCCN2CCNC2=N)CC1 (some centres not stated) | 4.4 µM | 6 µM | 1 |  | 
N=C1NCCN1CCc1ccccc1 | 10 µM | 8 µM | 1 |  | 
CCCCCCCN1CCN(CCCC[C@H]2CNC(=N)N2CCc2cccc(C(F)(F)F)c2)C1=N | 2.5 µM | 9 µM | 4 |  | 
N=C1NC[C@H](CCCCN2CCNC2=N)N1 | 4.8 µM | 50 µM | 10 |  | 
Cc1ccccc1CCN1C(=N)NC[C@@H]1CCCCN1CCNC1=N | 3.5 µM | 50 µM | 14 |  | 
CCCC[C@H]1CNC(=N)N1CC1CCC(C)CC1 (some centres not stated) | 0.6 µM | 6 µM | 10 |  | 
N=C1NCCN1CCCC[C@H]1CNC(=N)N1CCc1cccc(C(F)(F)F)c1 | 0.9 µM | 7 µM | 9 |  | 
CC1CCC(CCN2C(=N)NC[C@@H]2CCCCN2CCNC2=N)CC1 (some centres not stated) | 0.6 µM | 17 µM | 28 |  | 
N=C1NCCN1CCCC[C@H]1CNC(=N)N1CCCCC1CCCCC1 | 5.2 µM | 24 µM | 5 |  | 
N=C1NC[C@H](CCCCN2CCN(CCc3ccccc3)C2=N)N1 | 0.6 µM | 20 µM | 36 |  | 
CCCCCCCN1CCN(CCCC[C@H]2CNC(=N)N2)C1=N | 10 µM | 13 µM | 1 |  | 
Cc1ccc(CCN2C(=N)NC[C@@H]2CCCCN2CCNC2=N)cc1 | 3.9 µM | 22 µM | 6 |  | 

SMILES | IC50 (Leishmania donovani [1]) | IC50 (J774) | selectivity ratio [2] | inhibition at 2.5 µM (Leishmania donovani [3]) | inhibition at 5 µM (Leishmania donovani [4])
CCCCCCCN1C(=N)N(CCCC[C@H]2CNC(=N)N2)C[C@@H]1CCCC | 1.3 µM | 22 µM | 17 |  | 
CCCCCCCN1C(=N)N(CCCC[C@H]2CNC(=N)N2CCc2cccc(C(F)(F)F)c2)C[C@H]1Cc1ccc2ccccc2c1 | 3.5 µM | 50 µM | 14 | 37% | 100%
CCCCCCCN1CCN(CCCC[C@H]2CNC(=N)N2CCCCC2CCCCC2)C1=N | 3.5 µM | 6 µM | 2 |  | 
CCCCCCCN1C(=N)N(CCCC[C@H]2CNC(=N)N2)C[C@@H]1CC1CCCCC1 | 2.5 µM | 50 µM | 20 |  | 
N=C1NCCN1CCc1ccc(-c2ccccc2)cc1 | 4.8 µM | 15 µM | 3 |  | 
CCCC[C@H]1CN(CCCC[C@H]2CNC(=N)N2)C(=N)N1 | 5 to 10 µM | 50 µM | 5 to 10 |  | 
N=C1NC[C@H](CCCCN2C[C@@H](Cc3ccc4ccccc4c3)N(CCCCC3CCCCC3)C2=N)N1CCCCC1CCCCC1 | 0.9 µM | 50 µM | 56 | 0% | 0%
CC1CCCC(CCN2C(=N)NC[C@@H]2CCCCN2CCNC2=N)C1 (some centres not stated) | 1.8 µM | 19 µM | 10 |  | 
Cc1cccc(CCN2C(=N)NC[C@@H]2CCCCN2CCNC2=N)c1 | 0.9 µM | 50 µM | 56 |  | 
CCCCCCCN1C(=N)N(CCCC[C@@H]2CNC(=N)N2CCCCC2CCCCC2)C[C@@H]1CC1CCCCC1 | 8.9 µM | 50 µM | 6 |  | 
CCCC[C@H]1CN(CCCC[C@@H]2CNC(=N)N2CCc2cccc(C(F)(F)F)c2)C(=N)N1CCCCC1CCCCC1 | 0.6 µM | 50 µM | 79 |  | 
N=C1N[C@@H](CC2CCCCC2)CN1CCCC[C@H]1CNC(=N)N1CCCCC1CCCCC1 | 1.8 µM | 27 µM | 16 |  | 
CCCC[C@H]1CNC(=N)N1CCc1ccccc1 | 1.1 µM | 25 µM | 23 |  | 
CCCC[C@H]1CN(CCCC[C@H]2CNC(=N)N2CCc2cccc(C(F)(F)F)c2)C(=N)N1 | 3.5 µM | 11 µM | 3 |  | 
CC1CCCCC1CN1C(=N)NC[C@@H]1CCCCN1CCNC1=N (some centres not stated) | 5.4 µM | 14 µM | 3 |  | 
N=C1NCCN1CCCC[C@H]1CNC(=N)N1CCc1ccccc1 | 1.2 µM | 16 µM | 13 |  | 

Second part, led by results:

IC50 (Leishmania donovani [1]) | SMILES | IC50 (J774) | selectivity ratio [2] | inhibition at 2.5 µM (Leishmania donovani [3]) | inhibition at 5 µM (Leishmania donovani [4])
0.3 µM | CCCC[C@H]1CN(CCCC[C@H]2CNC(=N)N2CCc2cccc(C(F)(F)F)c2)C(=N)N1CCc1ccc(-c2ccccc2)cc1 | 28 µM | 88 to 89 | 47% | 100%
0.3 µM | N=C1NC[C@H](CCCCN2C[C@H](CC3CCCCC3)N(CCc3ccc(-c4ccccc4)cc3)C2=N)N1CCCCC1CCCCC1 | 20 µM | 69 | 70% | 95%
0.6 µM | CCCC[C@H]1CN(CCCC[C@H]2CNC(=N)N2CCC23CC4CC(CC(C4)C2)C3)C(=N)N1CCCCC1CCCCC1 | 27 µM | 41 | 11% | 8%
0.9 µM | CCCC[C@H]1CN(CCCC[C@H]2CNC(=N)N2CCC23CC4CC(CC(C4)C2)C3)C(=N)N1CCc1ccc(-c2ccccc2)cc1 | 22 µM | 25 | 0% | 0%
2.5 µM | CCCCCCCN1C(=N)N(CCCC[C@H]2CNC(=N)N2CCC23CC4CC(CC(C4)C2)C3)C[C@@H]1CC1CCCCC1 | 26 µM | 11 | 14% | 85%
0.9 µM | N=C1NC[C@H](CCCCN2C[C@H](CC3CCCCC3)N(CCc3ccc(-c4ccccc4)cc3)C2=N)N1CCC12CC3CC(CC(C3)C1)C2 | 17 µM | 20 | 14% | 57%
4.9 µM | N=C1NC[C@H](CCCCN2CCN(CCc3ccc(-c4ccccc4)cc3)C2=N)N1 | 50 µM | 10 |  | 
4.2 µM | CCCC[C@H]1CN(CCCC[C@H]2CNC(=N)N2CCC23CC4CC(CC(C4)C2)C3)C(=N)N1 | 13 µM | 3 |  | 
1.7 µM | N=C1NC[C@H](CCCCN2C[C@@H](Cc3ccc4ccccc4c3)N(CCc3ccc(-c4ccccc4)cc3)C2=N)N1CCC12CC3CC(CC(C3)C1)C2 | 41 µM | 25 | 0% | 0%
3.5 µM | N=C1NCCN1CCCC[C@H]1CNC(=N)N1CCC12CC3CC(CC(C3)C1)C2 | 50 µM | 14 |  | 
4.7 µM | CCCC[C@H]1CNC(=N)N1CCC12CC3CC(CC(C3)C1)C2 | 12 µM | 3 |  | 
> 5 µM | CCCCCCCN1C(=N)N(CCCC[C@H]2CNC(=N)N2CCC23CC4CC(CC(C4)C2)C3)C[C@@H]1CCCC | 32 µM | < 6 | 96% | 94%
0.7 µM | N=C1N(CCCC[C@H]2CNC(=N)N2CCC23CC4CC(CC(C4)C2)C3)CCN1CCc1ccc(-c2ccccc2)cc1 | 23 µM | 33 |  | 
2.4 µM | CCCC[C@H]1CNC(=N)N1CCc1ccc(-c2ccccc2)cc1 | 15 µM | 6 |  | 
3.8 µM | CCCC[C@H]1CN(CCCC[C@@H]2CNC(=N)N2CCC23CC4CC(CC(C4)C2)C3)C(=N)N1CCc1ccc(-c2ccccc2)cc1 | 21 µM | 6 |  | 
1.2 µM | CCCC[C@H]1CN(CCCC[C@H]2CNC(=N)N2)C(=N)N1CCc1ccc(-c2ccccc2)cc1 | 50 µM | 43 |  | 
2.6 µM | N=C1NC[C@H](CCCCN2C[C@@H](Cc3ccc4ccccc4c3)N(CCCCC3CCCCC3)C2=N)N1CCC12CC3CC(CC(C3)C1)C2 | 32 µM | 13 | 99% | 99%
> 5 µM | N=C1NC[C@H](CCCCN2C[C@@H](Cc3ccc4ccccc4c3)N(CCc3ccc(-c4ccccc4)cc3)C2=N)N1CCCCC1CCCCC1 | 34 µM | < 7 | 15% | 95%
0.6 µM | CCCCCCCN1C(=N)N(CCCC[C@H]2CNC(=N)N2CCC23CC4CC(CC(C4)C2)C3)C[C@H]1Cc1ccc2ccccc2c1 | 36 µM | 57 | 0% | 0%
